Converted amounts (≈) assume the structure as drawn. Structures can show the parent of a compound that is named as a salt. Where two headings read alike, the source gives them in different places.

Data set [1] is described as follows: Aqueous solubility of the drug.
The conditions of data set [2]: cited from earlier work.

Turning to “4-[3-[4-(2-methylimidazol-1 -yl) phenylthio]phenyl]-3,4,5,6-tetrahydro-2H-pyran-4-carboxamide hemifumarate [Drug 3]”, in data set [1] (pH 4), the solubility amounted to 3.7 mgA/mL. Molecule `CN[C@H]1CC[C@@H](c2ccc(Cl)c(Cl)c2)c2ccccc21` [Drug 2, sertraline HCl] displayed a solubility in data set [1] (aqueous, pH 7, aqueous buffer) of 200 µg/mL. As to `COc1cc2nc(N3CCCN(C(=O)N4CCOCC4)CC3)cc(N)c2c(-c2ccc(F)cc2)c1OC` [Drug 5, 4-amino-5-(4-fluorophenyl)-6,7-dimethoxy-2-[4-(morpholinocarbonyl)perhydro-1,4-diazepin-1-yl]quinoline], in data set [1] (aqueous, pH 7.6, aqueous buffer), the solubility was found to be 400 µg/mL (≈ 785 µM). Consider `CN[C@H]1CC[C@@H](c2ccc(Cl)c(Cl)c2)c2ccccc21` [sertraline], for which the “solubility (in words)” value in data set [2] (low pH) is “moderate solubility”; in data set [2] (pH of about 7.5), “extremely low solubility”; in data set [2] (pH values above 5), “low solubility”.
